How the values were obtained:
[1] = system: patients with acute vaso-occlusive crisis; details: after 4 hours; patients treated with morphine, Weiner et al.; cited from earlier work
[2] = system: patients with a severe vaso-occlusive crisis associated with sickle cell disease; assay: Clinical study of VEST in combination with NSAID for relief of pain in vaso-occlusive crisis (Example 6), 10-cm VAS for pain; assay type: in vivo, human; details: all groups also given Perfalgan and Tramadol
Description: The objective of the clinical study was to assess the efficacy of VEST in combination with non-steroid anti-inflammatory drugs to manage pain in adult and paediatric patients experimenting a severe vaso-occlusive crisis associated with sickle cell disease.
27 patients suffering from a sickle-cell disease and experimenting a severe vaso-occlusive crisis, with a pain score of at least 6 in the visual analog scale for pain (VAS pain), were enrolled in the study. The enrolled patients comprised 16 adults (of 19 to 35 years) and 11 children (of 8 to 17 years). 8 patients were of HbSS genotype, 19 patients were of HbSC genotype. The enrolled patients comprised 18 male subjects and 9 female subjects.
After their admission at the hospital, 15 patients received pain killer (Perfalgan) and (Tramadol) drugs and the NSAID Diclofenac and were subjected to VEST treatment for 4 hours, with two electrodes under each calf and two electrodes under each arm of the patient.
2 patients received Pain killer (Perfalgan) and (Tramadol) drug and were subjected to VEST treatment for 4 hours, with two electrodes under each calf and two electrodes under each arm of the patient. These patients were not administered with any NSAID. […]
Pain change in each patient was assessed with a 10-cm visual analog scale (VAS) for pain (e.g. as shown in FIG. 4) every two hours, during 6 hours after the beginning of VEST.

| SMILES | mean pain score in VAS [1] | mean pain score in VAS ([2]; after 4 hours) | mean pain score in VAS ([2]; after 6 hours) |
| --- | --- | --- | --- |
| CN1CC[C@]23c4c5ccc(O)c4O[C@H]2[C@@H](O)C=C[C@H]3[C@H]1C5 [morphine] | higher than 6 cm |  |  |
| O=C(O)Cc1ccccc1Nc1c(Cl)cccc1Cl [NSAID alone, Diclofenac] |  | 6 cm | 6 cm |

— US20190275324A1, “METHOD FOR TREATING OR PREVENTING A SICKLE-CELL DISEASE AND SYMPTOMS THEREOF” (DIAVEIN, priority 2016, published 2019)
